# In ChEMBL document CHEMBL1201862, “PubChem BioAssay data set” (2004):
#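 Briefly, cells in 96-well plates were exposed to five compound concentrations for 48 h, and endpoints were estimated by linear interpolation. Abbreviation: GI50, concentration required for 50% inhibition of growth.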 Activity calls are given as the source filed them. No stated cut-off is given here; in the data, active = GI50 up to about 1.1 µM and inactive = higher.
# Key:
# Test in all cases: growth of human tumour cells (NCI), 48 h
# [1] = tested on: 786-0
# [2] = tested on: A498
# [3] = tested on: A549
# [4] = tested on: ACHN
# [5] = tested on: BT-549
# [6] = tested on: CAKI-1
# [7] = tested on: CCRF-CEM
# [8] = tested on: COLO 205
# [9] = tested on: DU-145
# [10] = tested on: EKVX
# [11] = tested on: HCC 2998
# [12] = tested on: HCT-116
# [13] = tested on: HCT-15
# [14] = tested on: HL-60
# [15] = tested on: HOP-62
# [16] = tested on: HOP-92
# [17] = tested on: HT-29
# [18] = tested on: Hs-578T
# [19] = tested on: IGROV-1
# [20] = tested on: K562
# [21] = tested on: KM12
# [22] = tested on: LOX IMVI
# [23] = tested on: M14
# [24] = tested on: MCF7
# [25] = tested on: MDA-MB-231
# [26] = tested on: MDA-MB-435
# [27] = tested on: MDA-N
# [28] = tested on: MOLT-4
# [29] = tested on: Malme-3M
# [30] = tested on: NCI-H226
# [31] = tested on: NCI-H23
# [32] = tested on: NCI-H460
# [33] = tested on: NCI-H522
# [34] = tested on: NCI/ADR-RES
# [35] = tested on: OVCAR-3
# [36] = tested on: OVCAR-4
# [37] = tested on: OVCAR-5
# [38] = tested on: OVCAR-8
# [39] = tested on: PC-3
# [40] = tested on: RPMI-8226
# [41] = tested on: RXF 393
# [42] = tested on: SF-268
# [43] = tested on: SF-295
# [44] = tested on: SF-539
# [45] = tested on: SK-MEL-2
# [46] = tested on: SK-MEL-5
# [47] = tested on: SK-OV-3
# [48] = tested on: SN12C
# [49] = tested on: SNB-19
# [50] = tested on: SNB-75
# [51] = tested on: SR
# [52] = tested on: SW-620
# [53] = tested on: T47D
# [54] = tested on: TK-10
# [55] = tested on: U-251
# [56] = tested on: UACC-257
# [57] = tested on: UACC-62
# [58] = tested on: SK-MEL-28
# [59] = tested on: UO-31
structure (smiles),measurement,setting,value
Cc1cc(O)c2c(c1O)C(=O)c1c(O)ccc(O)c1C2=O [Cynodontin],GI50,[1],82 µM (inactive)
same,GI50,[2],> 100 µM (inactive)
same,GI50,[3],> 100 µM (inactive)
same,GI50,[4],> 100 µM (inactive)
same,GI50,[5],> 100 µM (inactive)
same,GI50,[6],> 100 µM (inactive)
same,GI50,[7],> 100 µM (inactive)
same,GI50,[8],> 100 µM (inactive)
same,GI50,[9],> 100 µM (inactive)
same,GI50,[10],> 100 µM (inactive)
same,GI50,[11],> 100 µM (inactive)
same,GI50,[12],> 100 µM (inactive)
same,GI50,[13],> 100 µM
same,GI50,[14],> 100 µM (inactive)
same,GI50,[15],> 100 µM (inactive)
same,GI50,[16],> 100 µM (inactive)
same,GI50,[17],> 100 µM (inactive)
same,GI50,[18],> 100 µM (inactive)
same,GI50,[19],> 100 µM (inactive)
same,GI50,[20],> 100 µM (inactive)
same,GI50,[21],> 100 µM (inactive)
same,GI50,[22],> 100 µM (inactive)
same,GI50,[23],> 100 µM (inactive)
same,GI50,[24],> 100 µM (inactive)
same,GI50,[25],> 100 µM (inactive)
same,GI50,[26],> 100 µM (inactive)
same,GI50,[27],> 100 µM (inactive)
same,GI50,[28],> 100 µM (inactive)
same,GI50,[29],> 100 µM (inactive)
same,GI50,[30],> 100 µM (inactive)
same,GI50,[31],> 100 µM (inactive)
same,GI50,[32],> 100 µM (inactive)
same,GI50,[33],> 100 µM (inactive)
same,GI50,[34],> 100 µM (inactive)
same,GI50,[35],> 100 µM (inactive)
same,GI50,[36],> 100 µM (inactive)
same,GI50,[37],> 100 µM (inactive)
same,GI50,[38],> 100 µM (inactive)
same,GI50,[39],> 100 µM (inactive)
same,GI50,[40],> 100 µM (inactive)
same,GI50,[41],> 100 µM (inactive)
same,GI50,[42],> 100 µM (inactive)
same,GI50,[43],> 100 µM (inactive)
same,GI50,[44],> 100 µM (inactive)
same,GI50,[45],> 100 µM (inactive)
same,GI50,[46],> 100 µM (inactive)
same,GI50,[47],> 100 µM (inactive)
same,GI50,[48],> 100 µM (inactive)
same,GI50,[49],> 100 µM (inactive)
same,GI50,[50],52.5 µM (inactive)
same,GI50,[51],> 100 µM (inactive)
same,GI50,[52],> 100 µM (inactive)
same,GI50,[53],> 100 µM (inactive)
same,GI50,[54],> 100 µM (inactive)
same,GI50,[55],> 100 µM (inactive)
same,GI50,[56],> 100 µM (inactive)
same,GI50,[57],> 100 µM (inactive)
C=C(C)C1CC2=C(C(=O)OC)C=C(O2)C(C(=C)C)[C@@H]2OC(=O)/C(=C\C1O)[C@H]2N(C)C (stereo not given in full),GI50,[1],8.05 µM (inactive)
same,GI50,[2],17.1 µM (inactive)
same,GI50,[3],13.9 µM (inactive)
same,GI50,[4],11.7 µM (inactive)
same,GI50,[5],9.75 µM (inactive)
same,GI50,[6],7.71 µM (inactive)
same,GI50,[7],1.6 µM (inactive)
same,GI50,[8],9.4 µM (inactive)
same,GI50,[9],12.1 µM (inactive)
same,GI50,[10],11.7 µM (inactive)
same,GI50,[11],14.7 µM (inactive)
same,GI50,[12],13.8 µM (inactive)
same,GI50,[13],5.97 µM
same,GI50,[14],2.82 µM (inactive)
same,GI50,[15],19.4 µM (inactive)
same,GI50,[16],6.53 µM (inactive)
same,GI50,[17],15 µM (inactive)
same,GI50,[18],18.9 µM (inactive)
same,GI50,[19],6.04 µM (inactive)
same,GI50,[20],3.6 µM (inactive)
same,GI50,[21],13.7 µM (inactive)
same,GI50,[22],8.09 µM (inactive)
same,GI50,[23],12.9 µM (inactive)
same,GI50,[24],5.92 µM (inactive)
same,GI50,[25],21.5 µM (inactive)
same,GI50,[26],9.44 µM (inactive)
same,GI50,[27],11.4 µM (inactive)
same,GI50,[29],12.9 µM (inactive)
same,GI50,[30],7.69 µM (inactive)
same,GI50,[31],13.1 µM (inactive)
same,GI50,[32],15.2 µM (inactive)
same,GI50,[33],2.91 µM (inactive)
same,GI50,[34],8.07 µM (inactive)
same,GI50,[35],12.6 µM (inactive)
same,GI50,[36],5.64 µM (inactive)
same,GI50,[37],16.5 µM (inactive)
same,GI50,[38],10.9 µM (inactive)
same,GI50,[39],11.4 µM (inactive)
same,GI50,[40],3.23 µM (inactive)
same,GI50,[41],5.02 µM (inactive)
same,GI50,[42],17 µM (inactive)
same,GI50,[43],17.5 µM (inactive)
same,GI50,[44],7.4 µM (inactive)
same,GI50,[58],13.1 µM (inactive)
same,GI50,[45],13 µM (inactive)
same,GI50,[46],14.2 µM (inactive)
same,GI50,[47],24.9 µM (inactive)
same,GI50,[48],12.5 µM (inactive)
same,GI50,[49],1.65 µM (inactive)
same,GI50,[50],14.6 µM (inactive)
same,GI50,[51],6.92 µM (inactive)
same,GI50,[52],7.33 µM (inactive)
same,GI50,[53],11.7 µM (inactive)
same,GI50,[54],1.6 µM (inactive)
same,GI50,[55],15.7 µM (inactive)
same,GI50,[56],20.9 µM (inactive)
same,GI50,[57],14.5 µM (inactive)
same,GI50,[59],13.4 µM (inactive)
